Where two headings read alike, the source gives them in different places.
Tests used:
CDK12 [1] = molecular target: T1, CDK12 (Homo sapiens (Human), UniProt Q9NYV4); experiment: Biochemical assay for CDK12 (IC50 determination), LANCE TR-FRET; conditions: for IC50: ATP 100 μM, 60 min pre-incubation
Experimental: The inhibitory activity of the test compounds was assessed by the LANCE TR-FRET assay, which detects the ATP-dependent phosphorylation of an ULight-4E-BP1 (Thr37/Thr46) substrate peptide (100 nM) by CDK12 (30 nM). Briefly, the enzyme reaction was run in reaction buffer (25 mM HEPES (pH 7.5), 10 mM MgCl2, 0.01% BSA, 0.01% Triton x, 1 mM DTT). The assay was performed in 384-well plate format. The end concentration of the ATP substrate was 100 μM, and that of the ULight-4E-BP1 (Thr37/Thr46) substrate peptide was 100 nM, and of CDK12 was 30 nM. Pre-incubation of the compound and enzyme was performed for 60 min at room temperature. After 60 min incubation at room temperature, the reaction was terminated by the addition of 40 mM EDTA and 0.5 nM Eu-labeled anti-phospho-eIF4E-binding protein (Thr37/46) antibody in LANCE detection buffer. […] The readout was calculated as (acceptor counts/donor counts)×1000. The IC50 values were derived by fitting a sigmoidal dose-response curve to a plot of assay readout over inhibitor concentration.

CDK12 [2] = molecular target: T1, CDK12; experiment: Biochemical assay for CDK12 (Kd determination), kinase-tagged phage/qPCR competition binding
Experimental: Kinase-tagged T7 phage strains were grown in parallel in 24-well blocks in an E. coli host derived from the BL21 strain. E. coli were grown to log-phase and infected with T7 phage from a frozen stock (multiplicity of infection=0.4) and incubated with shaking at 32° C. until lysis (90-150 minutes). The lysates were centrifuged (6,000×g) and filtered (0.2 μm) to remove cell debris. The remaining kinases were produced in HEK-293 cells and subsequently tagged with DNA for qPCR detection. […] The liganded beads were blocked with excess biotin and washed with blocking buffer (SeaBlock (Pierce), 1% BSA, 0.05% Tween 20, 1 mM DTT) to remove unbound ligand and to reduce non-specific phage binding. […] Test compounds were prepared as 40× stocks in 100% DMSO and directly diluted into the assay. All reactions were performed in polypropylene 384-well plates in a final volume of 0.02 ml. […] The kinase concentration in the eluates was measured by qPCR.
Target sequence in this assay (Q9NYV4 whole entry, species assumed): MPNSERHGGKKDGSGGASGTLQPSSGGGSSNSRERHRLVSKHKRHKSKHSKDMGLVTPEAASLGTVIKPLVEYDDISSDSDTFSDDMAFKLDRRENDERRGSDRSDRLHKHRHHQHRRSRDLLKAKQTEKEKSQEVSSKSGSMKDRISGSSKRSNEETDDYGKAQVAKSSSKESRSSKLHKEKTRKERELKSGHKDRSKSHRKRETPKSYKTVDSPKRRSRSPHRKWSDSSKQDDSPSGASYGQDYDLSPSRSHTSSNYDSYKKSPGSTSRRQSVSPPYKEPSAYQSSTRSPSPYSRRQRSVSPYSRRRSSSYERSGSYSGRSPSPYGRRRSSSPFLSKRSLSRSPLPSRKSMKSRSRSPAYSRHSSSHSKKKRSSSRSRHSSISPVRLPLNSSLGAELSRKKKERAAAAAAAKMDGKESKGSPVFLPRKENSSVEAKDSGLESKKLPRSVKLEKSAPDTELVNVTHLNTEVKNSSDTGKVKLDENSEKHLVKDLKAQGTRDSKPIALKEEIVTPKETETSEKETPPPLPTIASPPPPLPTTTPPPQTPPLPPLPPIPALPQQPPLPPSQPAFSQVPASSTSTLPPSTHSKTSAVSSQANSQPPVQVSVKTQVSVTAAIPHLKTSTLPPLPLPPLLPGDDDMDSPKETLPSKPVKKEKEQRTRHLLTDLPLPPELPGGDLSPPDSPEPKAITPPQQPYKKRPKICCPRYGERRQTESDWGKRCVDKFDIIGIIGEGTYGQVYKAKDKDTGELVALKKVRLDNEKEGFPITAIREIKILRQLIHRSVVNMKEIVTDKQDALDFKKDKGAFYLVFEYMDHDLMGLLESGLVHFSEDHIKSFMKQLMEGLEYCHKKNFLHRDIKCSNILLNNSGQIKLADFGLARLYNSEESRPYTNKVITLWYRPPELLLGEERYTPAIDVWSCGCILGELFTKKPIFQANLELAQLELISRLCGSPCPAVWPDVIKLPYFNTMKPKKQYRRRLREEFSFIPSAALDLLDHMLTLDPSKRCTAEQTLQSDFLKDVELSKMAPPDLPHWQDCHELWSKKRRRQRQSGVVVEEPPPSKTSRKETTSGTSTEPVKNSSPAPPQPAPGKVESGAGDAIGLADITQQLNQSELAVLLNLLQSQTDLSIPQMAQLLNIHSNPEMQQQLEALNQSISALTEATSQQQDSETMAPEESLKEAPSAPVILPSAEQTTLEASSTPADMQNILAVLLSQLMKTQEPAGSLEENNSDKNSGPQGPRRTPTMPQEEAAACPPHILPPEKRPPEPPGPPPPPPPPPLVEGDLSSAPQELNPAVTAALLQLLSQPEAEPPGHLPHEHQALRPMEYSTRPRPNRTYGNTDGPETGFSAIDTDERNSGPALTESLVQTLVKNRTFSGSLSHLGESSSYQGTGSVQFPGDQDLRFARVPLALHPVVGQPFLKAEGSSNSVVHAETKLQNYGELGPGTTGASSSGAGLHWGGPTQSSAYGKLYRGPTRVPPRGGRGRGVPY

CDK12 [3] = molecular target: T1, CDK12; experiment: CDK12 plate based target engagement assay in Jurkat cells; assay type: cell-based; conditions: for CDK12 Target Occupancy (Tocc50) μM in Jurkat cells: 6 hours
Experimental: Jurkat cells were treated with varying concentrations of the compound for 6 hours. The DMSO concentration was maintained at 0.1%. Cells were harvested and lysed. 200 μg of the lysate was incubated with 1 μM Bio-THZ531 in the presence of 1 mM DTT and incubated on a rocker at 4° C. overnight. 100 μL of this sample was added to pre-washed streptavidin coated plates and incubated at room temperature on a rocker for 2 hours. The plates were washed and incubated with CDK12 antibody for overnight at 4° C. Next day the plate was washed and incubated for 2 hours with HRP labelled anti rabbit secondary antibody. Bio-THZ531 bound CDK12 was determined using TMB substrate. […] Percentage CDK12 occupancy with the test compound was calculated over untreated control. Occupancy 50 was calculated by fitting the dose response data to sigmoidal curve fitting equation using GraphPad Prism software V5.

CDK13 = CDK13 (Homo sapiens (Human), UniProt Q14004); experiment: Biochemical assay for CDK13, LanthaScreen Eu Kinase Binding Assay; conditions: for IC50: kinase tracer 236 100 nM; for Ratio CDK7/CDK13: ratio of IC50
Chain of CDK13 (Q14004 whole entry, looked up, species assumed): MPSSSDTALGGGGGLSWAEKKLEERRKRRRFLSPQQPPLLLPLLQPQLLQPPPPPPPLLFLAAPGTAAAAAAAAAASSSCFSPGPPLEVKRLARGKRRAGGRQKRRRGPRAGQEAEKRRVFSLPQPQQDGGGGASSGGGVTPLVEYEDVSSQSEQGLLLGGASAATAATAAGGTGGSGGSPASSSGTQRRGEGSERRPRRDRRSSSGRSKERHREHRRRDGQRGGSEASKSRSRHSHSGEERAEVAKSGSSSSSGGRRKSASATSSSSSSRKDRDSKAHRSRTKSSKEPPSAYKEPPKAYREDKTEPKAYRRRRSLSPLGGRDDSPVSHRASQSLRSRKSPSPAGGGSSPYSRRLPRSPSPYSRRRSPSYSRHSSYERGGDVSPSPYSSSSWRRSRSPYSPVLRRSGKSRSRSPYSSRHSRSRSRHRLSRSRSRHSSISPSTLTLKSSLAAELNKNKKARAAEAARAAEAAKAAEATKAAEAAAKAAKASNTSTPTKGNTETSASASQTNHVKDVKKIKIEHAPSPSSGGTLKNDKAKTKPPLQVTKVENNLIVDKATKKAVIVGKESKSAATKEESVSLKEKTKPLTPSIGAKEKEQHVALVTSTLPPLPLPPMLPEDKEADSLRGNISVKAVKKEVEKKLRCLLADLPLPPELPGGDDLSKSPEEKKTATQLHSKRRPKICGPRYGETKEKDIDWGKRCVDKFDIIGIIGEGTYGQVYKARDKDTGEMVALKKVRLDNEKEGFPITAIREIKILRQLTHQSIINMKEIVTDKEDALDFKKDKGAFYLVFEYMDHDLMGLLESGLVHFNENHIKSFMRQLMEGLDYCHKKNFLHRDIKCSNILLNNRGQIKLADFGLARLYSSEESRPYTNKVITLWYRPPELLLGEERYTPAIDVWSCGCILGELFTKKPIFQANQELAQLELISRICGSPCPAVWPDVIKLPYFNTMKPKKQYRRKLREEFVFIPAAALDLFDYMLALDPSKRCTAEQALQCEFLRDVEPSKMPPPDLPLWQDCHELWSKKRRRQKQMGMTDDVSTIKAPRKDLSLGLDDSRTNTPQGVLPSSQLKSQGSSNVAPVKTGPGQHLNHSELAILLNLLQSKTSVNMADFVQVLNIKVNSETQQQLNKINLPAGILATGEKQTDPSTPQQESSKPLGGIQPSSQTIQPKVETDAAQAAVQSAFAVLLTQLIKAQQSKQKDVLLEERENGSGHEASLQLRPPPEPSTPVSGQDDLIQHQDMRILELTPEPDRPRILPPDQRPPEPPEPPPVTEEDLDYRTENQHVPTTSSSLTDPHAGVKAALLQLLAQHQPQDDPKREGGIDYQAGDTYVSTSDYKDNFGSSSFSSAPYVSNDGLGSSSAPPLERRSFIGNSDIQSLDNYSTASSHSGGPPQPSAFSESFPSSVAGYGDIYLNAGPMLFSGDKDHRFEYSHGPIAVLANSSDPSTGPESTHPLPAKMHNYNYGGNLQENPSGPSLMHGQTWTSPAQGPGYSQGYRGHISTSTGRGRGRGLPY
Chain of CDK13 (O75909 whole entry partner, looked up, species assumed): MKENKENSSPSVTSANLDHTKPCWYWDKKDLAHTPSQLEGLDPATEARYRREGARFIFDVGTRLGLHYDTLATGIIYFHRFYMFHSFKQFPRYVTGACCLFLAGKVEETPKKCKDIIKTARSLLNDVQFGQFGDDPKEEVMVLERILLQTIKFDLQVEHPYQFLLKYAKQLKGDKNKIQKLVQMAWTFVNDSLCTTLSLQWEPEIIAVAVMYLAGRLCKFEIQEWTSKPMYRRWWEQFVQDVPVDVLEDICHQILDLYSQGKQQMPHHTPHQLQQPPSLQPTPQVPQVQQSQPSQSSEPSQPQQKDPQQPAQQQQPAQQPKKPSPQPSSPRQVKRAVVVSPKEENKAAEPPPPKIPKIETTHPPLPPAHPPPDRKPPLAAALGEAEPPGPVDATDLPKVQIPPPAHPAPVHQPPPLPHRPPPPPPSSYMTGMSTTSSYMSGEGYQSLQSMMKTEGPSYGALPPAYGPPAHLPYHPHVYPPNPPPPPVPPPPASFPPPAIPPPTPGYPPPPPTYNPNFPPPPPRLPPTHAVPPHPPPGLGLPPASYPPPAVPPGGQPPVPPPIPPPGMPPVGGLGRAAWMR
Text: Binding of an inhibitor to the kinase competes for binding with the tracer, resulting in a loss of FRET signal.

CDK7 [4] = molecular target: T2, CDK7 (Homo sapiens (Human), UniProt P50613); experiment: Biochemical assay for CDK7, LANCE TR-FRET; conditions: read-out: CDK 7 IC50
Experimental: The inhibitory activity of the test compounds was assessed by the LANCE TR-FRET assay, which detects the ATP-dependent phosphorylation of an ULight-myelin basic protein (MBP) substrate peptide (100 nM) by CDK7 (10 nM). Briefly, the enzyme reaction was run in reaction buffer (20 mM HEPES (pH 7.5), 10 mM MgCl2, 0.01% Triton x, 100 μM Sodium Orthovanadate, 1 mM DTT). The assay was performed in 384-well plate. The end concentration of the ATP substrate was 1 mM/100 μM, and that of the ULight-MBP substrate peptide was 100 nM, and of CDK7 was 10 nM. Pre-incubation of the compound and enzyme was performed for 60 min at room temperature. After 60 min incubation at room temperature, the reaction was terminated by the addition of 40 mM EDTA and 1 nM Eu-labeled anti-phospho-MBP-binding protein antibody in the buffer. […] The readout was calculated as (acceptor counts/donor counts)×1000. The IC50 values were derived by fitting a sigmoidal dose-response curve to a plot of assay readout over inhibitor concentration.
Target sequence in this assay (P50613 whole entry, looked up, species assumed): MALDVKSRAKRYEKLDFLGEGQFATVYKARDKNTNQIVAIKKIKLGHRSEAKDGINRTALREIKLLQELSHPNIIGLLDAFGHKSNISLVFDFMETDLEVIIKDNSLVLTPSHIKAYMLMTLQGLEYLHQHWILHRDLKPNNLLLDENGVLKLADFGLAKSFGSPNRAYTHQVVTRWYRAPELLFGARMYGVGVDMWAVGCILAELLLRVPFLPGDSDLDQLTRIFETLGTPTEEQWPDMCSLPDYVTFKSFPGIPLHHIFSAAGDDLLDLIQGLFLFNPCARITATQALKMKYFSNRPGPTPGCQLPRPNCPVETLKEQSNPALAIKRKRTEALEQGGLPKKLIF
Target sequence in this assay (P51946 whole entry partner, looked up, species assumed): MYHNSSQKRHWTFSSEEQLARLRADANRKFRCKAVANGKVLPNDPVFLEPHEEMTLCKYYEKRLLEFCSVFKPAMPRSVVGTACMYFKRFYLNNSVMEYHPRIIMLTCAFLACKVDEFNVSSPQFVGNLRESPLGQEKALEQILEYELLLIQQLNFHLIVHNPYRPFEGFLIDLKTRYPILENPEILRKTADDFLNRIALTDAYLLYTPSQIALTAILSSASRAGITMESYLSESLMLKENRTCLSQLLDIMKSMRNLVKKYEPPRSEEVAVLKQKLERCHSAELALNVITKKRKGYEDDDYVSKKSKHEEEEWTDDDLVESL
Target sequence in this assay (P51948 whole entry partner, looked up, species assumed): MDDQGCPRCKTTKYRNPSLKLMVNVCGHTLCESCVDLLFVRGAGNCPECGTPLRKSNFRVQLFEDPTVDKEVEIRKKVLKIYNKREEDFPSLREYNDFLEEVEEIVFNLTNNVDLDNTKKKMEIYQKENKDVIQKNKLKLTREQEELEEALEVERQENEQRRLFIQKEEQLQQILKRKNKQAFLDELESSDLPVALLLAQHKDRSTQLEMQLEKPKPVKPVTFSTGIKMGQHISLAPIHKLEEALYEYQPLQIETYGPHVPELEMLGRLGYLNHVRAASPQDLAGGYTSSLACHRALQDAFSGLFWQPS

CDK7 [5] = molecular target: T2, CDK7; experiment: CDK7 target occupancy in Jurkat cells; assay type: cell-based
[6] = ATP 1 mM/100 μM, 60 min pre-incubation

SMILES	IC50 (CDK12 [1]) [nM]	Kd (CDK12 [2]) [nM]	CDK12 Target Occupancy (Tocc50) μM in Jurkat cells (CDK12 [3]; Jurkat cells) [µM]	IC50 (CDK13) [nM]	Ratio CDK7/CDK12 (CDK12 [1])	IC50 (CDK7 [4]; [6]) [nM]	Ratio CDK7/CDK12 (CDK12 [3])	Jurkat Cells, CDK12 Target Occ50 (CDK12 [3]; Jurkat cells) [nM]	binding affinity towards CDK12 in comparison to CDK7 (CDK12 [3]; Jurkat cells target occupancy) [fold]	Ratio CDK7/CDK13 (CDK13)	Jurkat Cells, CDK7 Target Occ50 (CDK7 [5]) [nM]	IC50 (CDK7 [4]) [nM]
C=CC(=O)N1CCC=C(c2ccc(C(C)C(=O)Nc3cc(C4CC4)[nH]n3)cn2)C1 (single isomer, unassigned) [Compound 37, 2-(1′-acryloyl-1′,2′,5′,6′-tetrahydro-[2,3′-bipyridin]-5-yl)-N-(5-cyclopropyl-1H-pyrazol-3-yl)propanamide]	29	< 25	0.012	3	–	–	–	–	–	–	–	–
C=CC(=O)N1CCC=C(c2ccc([C@H](C)C(=O)Nc3cc(C4CC4)[nH]n3)cc2)C1 [Compound 34, (S)-2-(4-(1-acryloyl-1,2,5,6-tetrahydropyridin-3-yl)phenyl)-N-(5-cyclopropyl-1H-pyrazol-3-yl)propanamide]	189	< 25	0.050	4.3	–	–	–	–	–	–	–	–
C[C@H](C(=O)Nc1cc(C2CC2)[nH]n1)c1ccc(C2=CCN(C(=O)/C=C/CN(C)C)CC2)cc1 [Compound 15, (S,E)-N-(5-cyclopropyl-1H-pyrazol-3-yl)-2-(4-(1-(4-(dimethylamino)but-2-enoyl)-1,2,3,6-tetrahydropyridin-4-yl)phenyl)propanamide]	235	–	0.204	18.8	2.64	621	8.175	204.4	> 8	33.03	1671	–
C=CC(=O)N1CCN(c2ccc(C(C)C(=O)Nc3cc(C4CC4)[nH]n3)cc2)CC1 (centres unmarked) [Compound 17, 2-(4-(4-acryloylpiperazin-1-yl)phenyl)-N-(5-cyclopropyl-1H-pyrazol-3-yl)propanamide]	590	> 100	0.030	81	13.49	–	–	–	–	98.27	–	7960
C=CC(=O)N1CC=C(c2ccc(C(C)C(=O)Nc3cc(C4CC4)[nH]n3)cn2)CC1 (single isomer, unassigned) [Compound 6, 2-(1′-acryloyl-1′,2′,3′,6′-tetrahydro-[2,4′-bipyridin]-5-yl)-N-(5-cyclopropyl-1H-pyrazol-3-yl)propanamide]	40	< 25	0.012	6	32.5	1300	–	–	–	216.66	–	–
C=CC(=O)N1CCC(c2ccc([C@H](C)C(=O)Nc3cc(C4CC4)[nH]n3)cc2)CC1 [Compound 12, (S)-2-(4-(1-acryloylpiperidin-4-yl)phenyl)-N-(5-cyclopropyl-1H-pyrazol-3-yl)propanamide]	151	–	0.080	7	18.74	2830	–	–	–	404.28	–	–
